The values below come from paper PMC7901699, “Challenging inflammatory process at molecular, cellular and in vivo levels via some new pyrazolyl thiazolones” (Journal of Enzyme Inhibition and Medicinal Chemistry, 2021).

The target in one test is T1, ovine COX-1 (Ovis aries, UniProt P05979).
T1 construct: purchased Cayman Chemicals Inc. 560131
T1 sequence (P05979 25-600): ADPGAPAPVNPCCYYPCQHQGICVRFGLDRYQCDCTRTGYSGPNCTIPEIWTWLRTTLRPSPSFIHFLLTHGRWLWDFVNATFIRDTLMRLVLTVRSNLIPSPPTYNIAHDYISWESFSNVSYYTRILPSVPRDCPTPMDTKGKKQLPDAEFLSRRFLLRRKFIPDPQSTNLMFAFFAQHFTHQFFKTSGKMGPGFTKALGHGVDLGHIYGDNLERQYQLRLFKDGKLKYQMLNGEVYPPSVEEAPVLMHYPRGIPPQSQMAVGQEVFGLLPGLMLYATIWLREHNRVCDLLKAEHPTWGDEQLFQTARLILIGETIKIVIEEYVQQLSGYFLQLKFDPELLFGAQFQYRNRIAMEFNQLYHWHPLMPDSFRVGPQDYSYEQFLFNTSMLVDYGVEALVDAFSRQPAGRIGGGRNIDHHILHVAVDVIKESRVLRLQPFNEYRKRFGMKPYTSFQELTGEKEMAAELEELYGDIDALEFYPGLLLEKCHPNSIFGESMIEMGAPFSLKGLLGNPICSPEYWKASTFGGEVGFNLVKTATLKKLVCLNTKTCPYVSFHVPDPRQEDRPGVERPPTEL
Briefly: In vitro COX-1 inhibition assay (colorimetric COX inhibitor screening kit, Cayman). In kind it is biochemical. The following applies: mean of three determinations. The protocol:
(§1) Both assays were carried out in compliance with the manufacturer’s instructions and in accordance to prior studies[29]^,[33].
(§2) IC50 values (μM) and selectivity indices (SI) were calculated.

A further test deals with IL-1β. Kind of test: IL-1β protein expression by Western blotting. The following applies: 100 μM compound; PMA 24 h then LPS 72 h; normalised to GAPDH. The format is cell-based, human. The protocol: THP-1 monocytes were exposed to 100 μM of the test compounds, activated with 25 nM PMA for 24 h followed by 100 ng/ml LPS for 72 h. At the end of the incubation period, cells were harvested, proteins were extracted and SDS-PAGE electrophoresis, blotting, and antibody probing were conducted as described previously. Primary rabbit polyclonal antibodies to IL-1β, procaspase-3, and GAPDH were obtained from Abcam (Cambridge, UK). Clarity Western ECL substrate (BioRad, Hercules, CA, USA) was used to obtain a chemiluminescence signal captured by a Chemidoc imaging system (BioRad, Hercules, CA, USA). Band density was estimated using ImageJ software (National Institutes of Health, Bethesda, MD) and normalised to the GAPDH band density as a loading control.

The next test addresses T2, human recombinant COX-2 (Homo sapiens, UniProt P35354).
T2 construct: purchased Cayman Chemicals Inc. 560131
T2 sequence (P35354 18-604): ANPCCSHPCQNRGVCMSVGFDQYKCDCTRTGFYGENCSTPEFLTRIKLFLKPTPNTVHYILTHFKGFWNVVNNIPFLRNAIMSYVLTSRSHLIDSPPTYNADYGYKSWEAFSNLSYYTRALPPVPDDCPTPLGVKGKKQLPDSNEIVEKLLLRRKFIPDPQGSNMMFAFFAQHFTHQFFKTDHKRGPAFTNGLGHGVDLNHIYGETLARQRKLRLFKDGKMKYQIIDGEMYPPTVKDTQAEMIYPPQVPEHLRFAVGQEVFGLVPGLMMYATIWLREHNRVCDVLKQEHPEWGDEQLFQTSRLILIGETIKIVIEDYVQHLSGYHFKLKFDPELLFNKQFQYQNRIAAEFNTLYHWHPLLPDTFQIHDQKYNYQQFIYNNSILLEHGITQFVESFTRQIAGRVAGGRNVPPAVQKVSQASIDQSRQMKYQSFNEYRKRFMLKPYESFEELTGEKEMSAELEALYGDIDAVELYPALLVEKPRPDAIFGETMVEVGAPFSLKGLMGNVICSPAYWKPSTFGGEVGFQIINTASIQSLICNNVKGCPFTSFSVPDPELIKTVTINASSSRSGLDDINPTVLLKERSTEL
Briefly: In vitro COX-2 inhibition assay (colorimetric COX inhibitor screening kit, Cayman). In kind it is biochemical. Here is the method:
as §1, §2

The next test addresses T3, 15-LOX (Glycine max, UniProt P08170).
T3 construct: purchased Cayman chemicals 760700
T3 sequence (P08170 1-839): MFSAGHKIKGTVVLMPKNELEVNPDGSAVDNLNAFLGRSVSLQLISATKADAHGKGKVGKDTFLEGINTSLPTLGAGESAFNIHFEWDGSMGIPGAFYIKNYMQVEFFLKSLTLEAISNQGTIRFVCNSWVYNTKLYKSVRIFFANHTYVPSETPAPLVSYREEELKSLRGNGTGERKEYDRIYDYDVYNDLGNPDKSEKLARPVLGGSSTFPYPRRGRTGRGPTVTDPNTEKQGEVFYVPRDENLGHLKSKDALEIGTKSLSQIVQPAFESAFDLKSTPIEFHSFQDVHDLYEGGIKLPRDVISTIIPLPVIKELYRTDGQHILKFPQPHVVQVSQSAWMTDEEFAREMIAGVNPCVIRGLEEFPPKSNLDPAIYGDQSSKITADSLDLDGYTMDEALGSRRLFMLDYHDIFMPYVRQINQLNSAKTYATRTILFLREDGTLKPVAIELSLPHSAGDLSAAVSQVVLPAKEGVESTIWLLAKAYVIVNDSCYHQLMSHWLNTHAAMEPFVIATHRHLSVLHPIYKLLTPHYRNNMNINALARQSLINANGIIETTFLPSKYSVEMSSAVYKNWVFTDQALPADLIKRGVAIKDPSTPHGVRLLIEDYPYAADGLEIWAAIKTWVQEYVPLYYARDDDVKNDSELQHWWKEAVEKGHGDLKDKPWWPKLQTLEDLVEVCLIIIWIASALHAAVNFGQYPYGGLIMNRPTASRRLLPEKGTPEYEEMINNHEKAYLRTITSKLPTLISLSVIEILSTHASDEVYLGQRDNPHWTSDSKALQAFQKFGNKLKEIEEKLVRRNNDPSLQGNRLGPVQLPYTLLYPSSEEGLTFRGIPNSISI
Briefly: In vitro 15-LOX inhibition assay (lipoxygenase inhibitor screening kit, Cayman). In kind it is biochemical. The protocol:
as §1, §2

SMILES strings stand for the structures. pIC50: −log10 of the molar value.

As to `COc1ccc(-c2nn(-c3ccccc3)cc2/C=C2\SC(N3CCCCC3)=NC2=O)cc1` [Compound 7, (Z)-5-((3-(4-methoxyphenyl)-1-phenyl-1H-pyrazol-4-yl)methylene)-2-(piperidin-1-yl)thiazol-4(5H)-one], the pIC50 is 4.99 at ovine COX-1, 7.05 on human recombinant COX-2 (mean of three determinations) and 5.45 on 15-LOX (mean of three determinations). In addition, the “IL-1β expression in PMA/LPS-challenged THP-1” value in the test with IL-1β is reported as “attenuating IL-1β production”. Also, at human recombinant COX-2 (IC50 (COX-1)/IC50 (COX-2)), the “SI (COX-1/ COX-2)” value was determined as 114. For the same molecule, on 15-LOX, the “15-LOX inhibition, potency compared with quercetin (in words)” value was “almost equipotent to quercetin”.
